Reference: BindingDB's records for doi:10.1021/acs.jmedchem.8b00106 (China Pharmaceutical University, 2018)

Test: Agonist activity at VDR in human HL60 cells assessed as induction of cell differentiation after 96 hrs by NBT assay

Row | Compound | EC50 [nM]
1 | CCn1c(C(=O)NC(CO)CCO)ccc1C(CC)(CC)c1ccc(OCCC(O)(CC)CC)c(C)c1 (stereo unspecified) | 2490
2 | CCOc1ccc(NC(=O)c2ccc(C(CC)(CC)c3ccc(OCCC(O)(CC)CC)c(C)c3)n2CC)cc1 | 1630
3 | C=CCN(C)C(=O)c1ccc(C(CC)(CC)c2ccc(OCCC(O)(CC)CC)c(C)c2)n1CC | > 10000
4 | CCn1c(C(=O)N(CCC#N)CCC#N)ccc1C(CC)(CC)c1ccc(OCCC(O)(CC)CC)c(C)c1 | > 10000
5 | CCn1c(C(=O)NCC#N)ccc1C(CC)(CC)c1ccc(OCCC(O)(CC)CC)c(C)c1 | 1080
6 | CCn1c(C(=O)Nc2ccc(OC(F)(F)F)cc2)ccc1C(CC)(CC)c1ccc(OCCC(O)(CC)CC)c(C)c1 | > 10000
7 | C#CC(C)OC(=O)c1ccc(C(CC)(CC)c2ccc(OCCC(O)(CC)CC)c(C)c2)n1CC (stereo unspecified) | 2650
8 | C#CCCOC(=O)c1ccc(C(CC)(CC)c2ccc(OCCC(O)(CC)CC)c(C)c2)n1CC | 6030
9 | CCn1c(C(=O)Oc2ccc(CC(=O)OC)cc2)ccc1C(CC)(CC)c1ccc(OCCC(O)(CC)CC)c(C)c1 | > 10000
10 | CCOC(=O)CN(C)C(=O)c1ccc(C(CC)(CC)c2ccc(OCCC(O)(CC)CC)c(C)c2)n1CC | 520
11 | CCn1c(C(=O)Nc2cccc(C(F)(F)F)c2)ccc1C(CC)(CC)c1ccc(OCCC(O)(CC)CC)c(C)c1 | 5900
12 | CCC(C)C(NC(=O)c1ccc(C(CC)(CC)c2ccc(OCCC(O)(CC)CC)c(C)c2)n1CC)C(=O)O (stereo unspecified) | 860
13 | CCC(C)C(NC(=O)c1ccc(C(CC)(CC)c2ccc(OCCC(O)(CC)CC)c(C)c2)n1CC)C(=O)OC (stereo unspecified) | > 10000

Compounds with a lower EC50, results first:

Row | EC50 [nM] | Compound
14 | 450 | CCC(C)C(CO)NC(=O)c1ccc(C(CC)(CC)c2ccc(OCCC(O)(CC)CC)c(C)c2)n1CC (stereo unspecified)
15 | 238 | CCn1c(C(=O)NCCCN2CCOCC2)ccc1C(CC)(CC)c1ccc(OCCC(O)(CC)CC)c(C)c1
16 | 156 | CCn1c(C(=O)NCCN)ccc1C(CC)(CC)c1ccc(OCCC(O)(CC)CC)c(C)c1
17 | 96 | CCn1c(C(=O)NC(C)CO)ccc1C(CC)(CC)c1ccc(OCCC(O)(CC)CC)c(C)c1 (stereo unspecified)
18 | 89 | CCn1c(C(=O)N(C)CC(=O)O)ccc1C(CC)(CC)c1ccc(OCCC(O)(CC)CC)c(C)c1
19 | 82 | CCn1c(C(=O)NCCN(C)C)ccc1C(CC)(CC)c1ccc(OCCC(O)(CC)CC)c(C)c1
20 | 66 | CCn1c(C(=O)NC(C)C(=O)O)ccc1C(CC)(CC)c1ccc(OCCC(O)(CC)CC)c(C)c1 (stereo unspecified)
21 | 53 | CCn1c(C(=O)N(C)CCO)ccc1C(CC)(CC)c1ccc(OCCC(O)(CC)CC)c(C)c1
22 | 26 | CCn1c(C(=O)NC(CC(=O)O)C(=O)OC)ccc1C(CC)(CC)c1ccc(OCCC(O)(CC)CC)c(C)c1 (stereo unspecified)
23 | 11 | CCN(CC)CCCNC(=O)c1ccc(C(CC)(CC)c2ccc(OCCC(O)(CC)CC)c(C)c2)n1CC
24 | 8.5 | CCn1c(C(=O)NC(C)CO)ccc1C(CC)(CC)c1ccc(OCC(O)C(C)(C)C)c(C)c1 (stereo unspecified)
25 | 5 | CCn1c(C(=O)NCCCN(C)C)ccc1C(CC)(CC)c1ccc(OCCC(O)(CC)CC)c(C)c1
26 | 2.3 | CCN(CC)CCNC(=O)c1ccc(C(CC)(CC)c2ccc(OCCC(O)(CC)CC)c(C)c2)n1CC
